In patent publication US10294202B2, “Pyrrolidinones as herbicides” (FMC Corporation, priority 2013, dated 2019):

Experiments:
surinam grass = assay: Test C pre-/postemergence herbicide test; assay type: in vivo, Brachiaria decumbens
In short: (§1)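 Compound solutions contained surfactant in a non-phytotoxic solvent. These were sprayed onto pots of loam/sand sown with seeds, and onto young plants (2 to 18 cm, 1- to 4-leaf) in sphagnum peat–vermiculite mix. Visual injury scores (0 none, 100 complete control) were recorded after 13 to 15 days.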

nightshade = assay: Test C pre-/postemergence herbicide test; assay type: in vivo, Solanum ptycanthum; details: Preemergence
In short: as §1

dayflower, VA = assay: Test E preemergence herbicide test; assay type: in vivo, Commelina virginica; set-up: key: 0 = no effect, 100 = complete control
In short: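 Greenhouse preemergence test: seeds sown into silt loam received compound in a non-phytotoxic solvent mixture with surfactant. Plants grew 21 days before visual comparison with controls. Scores run from 0, no effect, to 100, complete control.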

chamomile = assay: Test D pre-/postemergence herbicide test; assay type: in vivo, Matricaria inodora; details: Postemergence, Chamomile, scale 0 to 100
In short: (§2)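 Test chemicals, formulated in a non-phytotoxic solvent mixture with surfactant, are sprayed preemergence onto seeds in silt loam and postemergence onto plants of 2–18 cm. Plants are held in a controlled growth environment for 7 to 21 days, then rated visually versus controls (0–100).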

deadnettle = assay: Test D pre-/postemergence herbicide test; assay type: in vivo, Lamium amplexicaule; details: Postemergence, Deadnettle, scale 0 to 100
In short: as §2

[1] = Preemergence, 62 g ai/ha, scale 0 to 100
[2] = Preemergence, 125 g ai/ha, scale 0 to 100 (0 no effect, 100 complete control)

Structure (SMILES) | Plant response rating, Surinam Grass (surinam grass; [1]) | Plant response rating, Surinam Grass (surinam grass; [2]) | Plant response rating, Nightshade (nightshade; 62 g ai/ha, scale 0 to 100) | Plant response rating, Dayflower, VA (dayflower, VA; 16 g ai/ha) | Plant response rating, Dayflower, VA (dayflower, VA; 31 g ai/ha) | Plant response rating, Dayflower, VA (dayflower, VA; 62 g ai/ha) | Plant response rating, Dayflower, VA (dayflower, VA; 125 g ai/ha) | Plant response rating, Dayflower, VA (dayflower, VA; 250 g ai/ha) | further results
O=C1NCC(c2ccc(Cl)c(Cl)c2)C1C(=O)Nc1ccccc1F (racemic) [Compound 14] | 80 | 95 | 0 | 0 | 0 | 0 | 0 | 0 | 
O=C1NCC(c2ccc(F)c(F)c2)C1C(=O)Nc1cccc(F)c1F (stereo not shown) [Compound 17, N-(2,3-difluorophenyl)-4-(3,4-difluorophenyl)-2-oxo-3-pyrrolidinecarboxamide] | 90 | 90 | 20 | 0 | 0 | 0 | 0 | 0 | Plant response rating, Surinam Grass (surinam grass; Postemergence, 31 g ai/ha, scale 0 (no effect) to 100 (complete control)): 0; Plant response rating, Surinam Grass (surinam grass; Postemergence, 62 g ai/ha, scale 0 to 100 (0 no effect, 100 complete control)): 0; Plant response rating, Surinam Grass (surinam grass; Postemergence, 125 g ai/ha, scale 0 to 100 (0 no effect, 100 complete control)): 45; Plant response rating, Surinam Grass (surinam grass; Postemergence, 250 g ai/ha, scale 0 to 100 (0 no effect, 100 complete control)): 60; Plant response rating, Nightshade (nightshade; 125 g ai/ha, scale 0 to 100 (0 no effect, 100 complete control)): 40; Plant response rating (chamomile; 16 g ai/ha): 0; Plant response rating (chamomile; 31 g ai/ha): 0; Plant response rating (chamomile; 62 g ai/ha): 0; Plant response rating (chamomile; 125 g ai/ha): 0; Plant response rating (chamomile; 250 g ai/ha): 0; Plant response rating (deadnettle; 16 g ai/ha): 0; Plant response rating (deadnettle; 31 g ai/ha): 0; Plant response rating (deadnettle; 62 g ai/ha): 0; Plant response rating (deadnettle; 125 g ai/ha): 10; Plant response rating (deadnettle; 250 g ai/ha): 10
